The structures appear in SMILES notation. pIC50: −log10 of the molar value.

Assay [1] has as its target LMP7 (purified human immunoproteasome) (Homo sapiens, UniProt P28062). The experiment in a line: Determination of LMP7 activity (fluorescence intensity assay, Suc-LLVY-AMC). It counts as biochemical. As to the method: Determination of LMP7 Activity
Measurement of LMP7 inhibition is performed in 384 well format based on fluorescence intensity assay.
(§1) Purified human immunoproteasome (0.25 nM) and serial diluted compounds in DMSO (range of concentrations from 30 μM to 15 pM) or controls are incubated for 20 minutes or 120 minutes (long incubation) at 25° C. in assay buffer containing 50 mM Tris pH 7.4, 0.03% SDS, 1 mM EDTA and 1% DMSO. The reaction is initiated by the addition of the fluorogenic peptide substrate, Suc-LLVY-AMC (Bachem I-1395), at a concentration of 40 μM. After 60 minutes of incubation at 37° C., fluorescence intensity is measured at λex=350 nm and λem=450 nm with a fluorescence reader (Perkin Elmer Envision reader or equivalent).
(§2) Unless indicated otherwise the results are obtained after incubation for 20 minutes.

Assay [2] addresses Beta5 (purified human constitutive proteasome) (Homo sapiens, UniProt P28074). Nature of the assay: Determination of Beta5 activity (fluorescence intensity assay, Suc-LLVY-AMC). It counts as biochemical. As to the method: Determination of Beta5 Activity
Measurement of Beta5 inhibition is performed in 384 well format based on fluorescence intensity assay.
as §1, with “constitutive proteasome (1.25” for “immunoproteasome (0.25”
as §2

The target in assay [3] is LMP7 subunit of the immunoproteasome (Homo sapiens, UniProt P28062). To be noted: Singh et al., Br. J. Hematology 152(2): 155-163; cited from earlier work.

The pIC50 is the IC50 on a negative log10 scale, so that one unit is a factor of ten. Higher therefore signals a low IC50. Take `CCN(CCC(=O)N[C@@H](Cc1ccc(F)cc1)B(O)O)C(=O)c1ccc(C#N)cc1` [Compound No. 28, [(1R)-1-[3-[(4-cyanobenzoyl)-ethyl-amino]propanoylamino]-2-(4-fluorophenyl)ethyl]boronic acid]: the pIC50 was more than 7.30 in assay [1] (incubation for 20 minutes) and 5.30 to 6.30 in assay [2] (incubation for 20 minutes). Also, the “Selectivity LMP7 vs Beta5” value in assay [2] (incubation for 20 minutes) is listed as “++++ (++++: 50 ≤ Selectivity < 70)”.
The like results for `CCN(CC(=O)N[C@@H](Cc1ccc(C)cc1C)B(O)O)S(=O)(=O)c1ccccc1C` [Compound No. 29, [(1R)-2-(2,4-dimethylphenyl)-1-[[2-[ethyl(o-tolylsulfonyl)amino]acetyl]-amino]ethyl]boronic acid] were, in that order, more than 7.30, 5.30 to 6.30 and “+++++ (+++++: Selectivity ≥ 70)”.
The like results for `CCN(CC(=O)N[C@@H](Cc1ccc(C)cc1C)B(O)O)S(=O)(=O)c1ccc(C)cc1` [Compound No. 30, [(1R)-2-(2,4-dimethylphenyl)-1-[[2-[ethyl(p-tolylsulfonyl)amino]acetyl]-amino]ethyl]boronic acid] were, in that order, more than 7.30, 5.30 to 6.30 and “+++++ (+++++: Selectivity ≥ 70)”.
For `CCN(CC(=O)N[C@@H](Cc1ccc(C)cc1C)B(O)O)S(=O)(=O)c1cccc(C)c1` [Compound No. 31, [(1R)-2-(2,4-dimethylphenyl)-1-[[2-[ethyl(m-tolylsulfonyl)amino]-acetyl]amino]ethyl]boronic acid], in that order: more than 7.30, 6.30 to 7.30 and “++++ (++++: 50 ≤ Selectivity < 70)”.
With `Cc1ccc(S(=O)(=O)N(C)CC(=O)N[C@@H](Cc2ccc(C)cc2C)B(O)O)cc1` [Compound No. 32, [(1R)-2-(2,4-dimethylphenyl)-1-[[2-[methyl(p-tolylsulfonyl)amino]-acetyl]amino]ethyl]boronic acid], the negative logarithm of the IC50 (pIC50) in assay [1] (incubation for 20 minutes) was more than 7.30; in assay [2] (incubation for 20 minutes), 6.30 to 7.30. In assay [2] (incubation for 20 minutes), the “Selectivity LMP7 vs Beta5” value is “+++++ (+++++: Selectivity ≥ 70)”.
For `Cc1ccc(S(=O)(=O)N(CC(=O)N[C@@H](Cc2ccc(C)cc2C)B(O)O)C(C)C)cc1` [Compound No. 33, [(1R)-2-(2,4-dimethylphenyl)-1-[[2-[isopropyl(p-tolylsulfonyl)amino]-acetyl]amino]ethyl]boronic acid], in that order: more than 7.30, 5.30 to 6.30 and “+++++ (+++++: Selectivity ≥ 70)”.
The like results for `CCC(=O)N(CC(=O)N[C@@H](Cc1ccc(C)cc1C)B(O)O)c1ccccc1` [Compound No. 34, [(1R)-2-(2,4-dimethylphenyl)-1-[[2-(N-propanoylanilino)acetyl]amino]-ethyl]boronic acid] were, in that order, more than 7.30, 5.30 to 6.30 and “+++++ (+++++: Selectivity ≥ 70)”.
For `Cc1ccc(C[C@H](NC(=O)CN(c2ccccc2)S(=O)(=O)c2ccccc2)B(O)O)c(C)c1` [Compound No. 35, [(1R)-1-[[2-[N-(benzenesulfonyl)anilino]acetyl]amino]-2-(2,4-dimethylphenyl)ethyl]boronic acid], in that order: more than 7.30, 6.30 to 7.30 and “++++ (++++: 50 ≤ Selectivity < 70)”.
In assay [1] (incubation for 20 minutes), `CCN(CC(=O)N[C@@H](Cc1ccc(C)cc1C)B(O)O)C(=O)CSC` [Compound No. 36, [(1R)-2-(2,4-dimethylphenyl)-1-[[2-[ethyl-(2-methylsulfanylacetyl)-amino]acetyl]amino]ethyl]boronic acid] gave a pIC50 of 6.30 to 7.30. In assay [2] (incubation for 20 minutes), the pIC50 is less than 5.30 and the “Selectivity LMP7 vs Beta5” value is listed as “++++ (++++: 50 ≤ Selectivity < 70)”.
For `CCN(CC(=O)N[C@@H](Cc1ccc(C)cc1C)B(O)O)C(=O)CCl` [Compound No. 37, [(1R)-1-[[2-[(2-chloroacetyl)-ethyl-amino]acetyl]amino]-2-(2,4-dimethylphenyl)ethyl]boronic acid], in that order: 6.30 to 7.30, less than 5.30 and “+++ (+++: 30 ≤ Selectivity < 50)”.
Regarding `CN(C)C(=O)C(C(=O)N[C@@H](Cc1coc2ccccc12)B(O)O)c1ccccc1` (stereo partly drawn) [Compound No. 38, [(1R)-2-(benzofuran-3-yl)-1-[[3-(dimethylamino)-3-oxo-2-phenyl-propanoyl]amino]ethyl]boronic acid], the negative logarithm of the IC50 (pIC50) in assay [1] (incubation for 20 minutes) is more than 7.30. Further, in assay [2] (incubation for 20 minutes), the pIC50 was 5.30 to 6.30 and the “Selectivity LMP7 vs Beta5” value is reported as “+++++ (+++++: Selectivity ≥ 70)”.
For `CCC(=O)N(CC(=O)N[C@@H](Cc1ccsc1)B(O)O)c1ccccc1F` [Compound No. 39, [(1R)-1-[[2-(2-fluoro-N-propanoyl-anilino)acetyl]amino]-2-(3-thienyl)ethyl]boronic acid], in that order: 5.30 to 6.30, less than 5.30 and “+++ (+++: 30 ≤ Selectivity < 50)”.
As for `CN(CC(=O)N[C@@H](Cc1ccsc1)B(O)O)C(=O)c1ccccc1C(F)(F)F` [Compound No. 40, [(1R)-1-[[2-[methyl-[2-(trifluoromethyl)benzoyl]amino]acetyl]amino]-2-(3-thienyl)ethyl]boronic acid], the pIC50 in assay [1] (long incubation (120 min)) was 5.30 to 6.30; in assay [2] (long incubation (120 min)) it was less than 5.30.
`Cc1ccc(S(=O)(=O)N(CC(=O)N[C@@H](C[C@@H]2COc3ccccc32)B(O)O)C(C)C)cc1` [Compound No. 41, [(1R)-2-[(3S)-2,3-dihydrobenzofuran-3-yl]-1-[[2-[isopropyl(p-tolylsulfonyl)amino]acetyl]amino]ethyl]boronic acid]: the negative-log IC50 (pIC50) is more than 7.30 in assay [1] (long incubation (120 min)) and 5.30 to 6.30 in assay [2] (long incubation (120 min)). The “Selectivity LMP7 vs Beta5” value in assay [2] (long incubation (120 min)) is on record as “+++++ (+++++: Selectivity ≥ 70)”.
The like results for `CCN(CCC(=O)N[C@@H](C[C@@H]1COc2ccccc21)B(O)O)C(=O)c1ccc(Cl)cc1` [Compound No. 42, [(1R)-1-[3-[(4-chlorobenzoyl)-ethyl-amino]propanoylamino]-2-[(3S)-2,3-dihydrobenzofuran-3-yl]ethyl]boronic acid] were, in that order, more than 7.30, 6.30 to 7.30 and “+++++ (+++++: Selectivity ≥ 70)”.
The like results for `CCN(CC(=O)N[C@@H](Cc1coc2c(C)cccc12)B(O)O)S(=O)(=O)c1ccc(C)cc1` [Compound No. 43, [(1R)-1-[[2-[ethyl(p-tolylsulfonyl)amino]acetyl]amino]-2-(7-methylbenzofuran-3-yl)ethyl]boronic acid] were, in that order, 6.30 to 7.30, less than 5.30 and “+++++ (+++++: Selectivity ≥ 70)”.
For `CC1=C(C(=O)N[C@H](C)C(=O)N[C@@H](Cc2c[nH]c3ccccc23)C(=O)N[C@@H](Cc2ccccc2)C(=O)[C@@]2(C)CO2)Cc2ccccc21` [PR-924], the “selectivity for the LMP7 subunit of the immunoproteasome” value in assay [3] is 100 fold.
